Biological target: T1, Type-1 angiotensin II receptor (Oryctolagus cuniculus, UniProt P34976)
T1 sequence (P34976 whole entry): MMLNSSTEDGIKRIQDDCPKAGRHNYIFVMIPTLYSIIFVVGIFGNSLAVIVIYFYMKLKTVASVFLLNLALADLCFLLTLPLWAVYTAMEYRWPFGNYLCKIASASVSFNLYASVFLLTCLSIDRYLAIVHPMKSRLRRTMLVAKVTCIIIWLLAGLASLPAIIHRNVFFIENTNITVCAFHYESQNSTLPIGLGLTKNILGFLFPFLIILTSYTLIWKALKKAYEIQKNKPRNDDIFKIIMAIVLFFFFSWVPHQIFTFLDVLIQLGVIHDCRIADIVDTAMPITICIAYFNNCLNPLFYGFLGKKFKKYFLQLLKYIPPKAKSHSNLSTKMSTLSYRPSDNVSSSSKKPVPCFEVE
Assay: Antagonist activity at Oryctolagus cuniculus (rabbit) aortic AT1 receptor

| IC50 (read-out: IC50) | IC50 (read-out: pIC50 (converted)) | Structure (SMILES) |
| --- | --- | --- |
| 0.19 nM | – | CCCCC(=O)Nc1ccc(Cl)c(-n2nc(CCC)n(Cc3ccc(-c4ccccc4S(=O)(=O)NC(=O)c4cc(Cl)ccc4Cl)cc3F)c2=O)c1 |
| – | 0.178 nM | CCCCNC(=O)c1ccc(Cl)c(-n2nc(CCCC)n(Cc3ccc(-c4ccccc4S(=O)(=O)NC(=O)OC(C)(C)C)cc3F)c2=O)c1 |

— ChEMBL document CHEMBL3045831, “Insight into the structural requirement of aryltriazolinone derivatives as angiotensin II AT1 receptor: 2D and 3D-QSAR k-Nearest Neighbor Molecular Field Analysis approach” (Med Chem Res, 2012)
